In US7968097B2, “Identification of Hla-A2-presented T-cell epitopes derived from the oncofoetal antigen-immature laminin receptor protein and uses thereof” (Immatics Biotechnologies GmbH, priority 2005, dated 2011):
Values joined by “and” are separate entries in the source; they are usually repeats but may differ in a detail not shown here. Equal entries are not always repeated. “Also recorded” adds a separate entry of the source.

Legend:
[1] = tested on: PBMC of HLA-A*02 positive AML patients; test: IFN-γ ELISPOT, AML patients; settings: for samples with significant (>20) CTL responses against peptide: AML patient samples, IFN-γ ELISPOT; for # of positively stained spots (IFN-γ ELISPOT): AML patients, HLA-A*02 positive, one value per patient (table line), T cells cultured seven days with IL-2
Protocol: (§2) To determine the frequency of OFA/iLR peptide-specific T cells in patients, ELISPOT-assays were performed using the Interferon-γ-ELISPOT-Kit (Becton Dickinson, Heidelberg, Germany) according to manufacturer's instructions.
(§3) Prior to analysis, T cells from patients and healthy donors had been kept in culture for seven days in the presence of Interleukin-2 (IL microgram/10^6 PBMC/milliliter).

[2] = tested on: tumor cells from AML patients; test: 51Chromium release assay, peptide-specific CTL on tumor cells from AML patients; assay type: cell-based, human; settings: for recognition of AML cells from A*02-negative patients by peptide-specific T cells / recognition of AML cells from A*02-positive patients by peptide-specific T cells: 1st and 2nd experiment; for A*02-positive AML patients in whom the peptide is a tumor-associated antigen: summary of two sets of experiments
Excerpt: (§1) CTL derived from healthy HLA-A*0201^+ individuals were generated using a protocol described elsewhere (Zeis M, Siegel S, Schmitz M et al. Induction of cytotoxic T lymphocytes against hematologic neoplasms by survivin RNA-transfected dendritic cells. J Immunol. 2003; 170, 5391-5397.). For the induction of autologous OFA/ILR, peptide-specific CTL obtained from patients with AML and CLL, CD8^+ T cells were separated from PBMC using immunomagnetic beads (MACS®, Miltenyi, Bergisch-Gladbach, Germany), cultured with autologous OFA/iLR peptide-pulsed fully matured DC and restimulated with autologous peptide-pulsed PBMC in the presence of IL-2 (1 ng/ml, CellConcepts, Weisskirch, Germany). After at least four weekly restimulations, CTL reactivity was determined in a conventional 4 h ^51Chromium release assay. Cold target inhibition assays and antibody blocking experiments were performed as previously described (Zeis M, Siegel S, Schmitz M et al. Induction of cytotoxic T lymphocytes against hematologic neoplasms by survivin RNA-transfected dendritic cells. J Immunol. 2003; 170, 5391-5397.).
T cells specific for HLA-A*02-restricted ILR1 were tested on tumor cells from AML patients (4 patients; samples AML-01, -02, -03, -06) (FIG. 4A). Cells from A*02-positive patients (3/4) were recognized with maximum lysis at an E:T ratio of 40:1 ranging between 25,9% and 39,8%.
T cells specific for HLA-A*02-restricted ILR1 were tested on tumor cells from AML patients for a second time to confirm the results obtained in the 1st experiment (9 patients; samples AML-01, -02, -04, -05, -06, -07, -09, -10, -12).
T cells specific for HLA-A*02-restricted ILR2 were tested on tumor cells from AML patients (8 patients; samples AML-01, -02, -04, -05, -06, -07, -10, -12). […] The experiment was conducted a 2nd time with samples from patients […]. In this 2nd experiment, T cells specific for HLA-A*02-restricted ILR2 were tested again on tumor cells from AML patients (4 patients; samples AML-01, -02, -03, -06).

peptide-pulsed T2 cells = test: Lysis of peptide-pulsed T2 target cells by peptide-specific CTL (peptide titration); assay type: cell-based, human; settings: for affinity of peptide-specific CTL to the peptide/MHC complex: peptide titration curves
[3] = tested on: T cells of HLA-A*0201+ patients with hematological malignancies; test: IFN-γ ELISPOT, pooled HLA-A*0201+ AML, CLL and multiple myeloma patients; assay type: cell-based, human; settings: 50 HLA-A*0201+ patients with hematological malignancies
Protocol: To determine the frequency of iLR1- and iLR2-specific T cells in HLAA*0201^+ AML, CLL and multiple myeloma patients, ELISPOT IFNI’ secretion assay (Tables 3-5) were performed.

[4] = tested on: CD8+ lymphocytes from peripheral blood of HLA-A2+ donors; test: Tetramer analysis of microsphere driven expansion of peptide-specific CD8+ lymphocytes; assay type: cell-based, human; settings: for Evaluable donors with clearly positive T-cell responses: of 5 evaluable HLA-A2+ donors, microspheres with anti-CD28 plus high density A*0201/peptide; for Evaluable stimulations with clearly positive T-cell responses: of 53 (RPS-001) or 54 (RPS-002) evaluable stimulations among all evaluable donors
Excerpt: 1×10^6 CD8+ enriched PBMCs per well of the healthy HLA-A2+ donor HBC-065 were stimulated weekly in one well with microspheres coupled to anti-CD28 plus high density tumor antigen A*0201/RPS-001 (upper panel) or high density tumor antigen A*0201/RPS-002 (lower panel) as shown before [Walter, S, et al. Cutting Edge: Predetermined avidity of human CD8 T cells expanded on calibrated MHC/anti-CD28-coated microspheres. J. Immunol. 171(10):4974-8, 2003] with minor modifications. After three stimulations in vitro, cells of both wells were stained with antibody CD8 FITC plus tetramer A*0201/RPS-001 APC and A*0201/RPS-002 PE. Cells are gated on the lymphocyte population (left and middle panel) or on the CD8+ lymphocyte population (right panel). Numbers represent percentage of tetramer^+ within CD8+ lymphocytes. RPS-001=LLAARAIVAI (SEQ ID-No. 1); RPS-002=ALCNTDSPL (SEQ ID-No. 2)
Table 6: Summary of tetramer analysis of microsphere driven expansions of A2/RPS-001 and A2/RPS-002 specific CD8^+ lymphocytes from peripheral blood. 1×10^6 CD8^+ enriched PBMCs per well were stimulated as in FIG. 12 with microspheres coupled to anti-CD28 plus high density tumor antigen A*0201/RPS-001 or high density tumor antigen A*0201/RPS-002. Indicated are number of evaluable HLA-A2^+ donors, number of evaluable donors with at least one clearly positive response, number of evaluable stimulations among all evaluable donors and number of evaluable stimulations with clearly positive responses. RPS001=LLAARAIVAI (SEQ ID-NO: 1); RPS-002=ALCNTDSPL (SEQ ID-NO: 2)

[5] = tested on: CD8+ T cells of HLA-A*0201+ individuals; test: Generation of peptide-specific CTL lines with peptide-pulsed matured DC; assay type: cell-based, human; settings: for generation of CTL lines from healthy HLA-A*0201+ donors: fully matured DC pulsed with the peptide; for generation of autologous peptide-specific CTL lines from patients: one patient with CLL and another with AML, tested against autologous and allogeneic HLA-A2-matched target cells
Excerpt: The identification of T-helper cell epitopes of tumor associated antigens remains an important task in anti-tumor immunotherapy. To identify T cell-binding epitopes deduced from the OFA-iLR protein, 14 peptides were synthesized (see below) that were predicted by the computer programs PAProC (http://www.uni-tuebingen.de/uni/kxi/) and SYFPEITHY (http://www.syfpeithi.de) to bind to the HLA-A*0201 molecule.
as §1

[6] = tested on: PBMC of HLA-A*02 positive healthy donors; test: IFN-γ ELISPOT, healthy donors; settings: healthy donors, HLA-A*02 positive; one value per donor (table line); T cells cultured seven days with IL-2
Protocol: as §2, §3

ALCNTDSPL (listed as Homo sapiens) [ILR2]
samples with significant (>20) CTL responses against peptide [1]: 47% | # of positively stained spots (IFN-γ ELISPOT) [1]: 0 per 105 PBMC (4×) and 1 per 105 PBMC (2×) and 3 per 105 PBMC (2×) and 34 per 105 PBMC (3×) and 27 per 105 PBMC and 23 per 105 PBMC and 112 per 105 PBMC and 32 per 105 PBMC | recognition of AML cells from A*02-negative patients by peptide-specific T cells [2]: not recognized (4/4); also recorded: not recognized (0/1) | recognition of AML cells from A*02-positive patients by peptide-specific T cells [2]: recognized in all cases (4/4) | A*02-positive AML patients in whom the peptide is a tumor-associated antigen [2]: 100% | recognition/lysis of T2 cells pulsed with the peptide (peptide-pulsed T2 cells; effectors: T cells specific for ILR2): lysed in a dose-dependent fashion | affinity of peptide-specific CTL to the peptide/MHC complex (peptide-pulsed T2 cells): high affinity | patients with significant levels of peptide-specific T cells [3]: 40% | Evaluable donors with clearly positive T-cell responses [4]: 1 | Evaluable stimulations with clearly positive T-cell responses [4]: 1 | generation of CTL lines from healthy HLA-A*0201+ donors [5]: CTL lines could be generated | generation of autologous peptide-specific CTL lines from patients [5]: could be generated eliciting efficient cytotoxic activity | # of positively stained spots (IFN-γ ELISPOT) [6]: 0 per 105 PBMC (5×) and 3 per 105 PBMC (2×) and 2 per 105 PBMC and 4 per 105 PBMC (3×) and 5 per 105 PBMC (2×) and 6 per 105 PBMC and 7 per 105 PBMC

LLAARAIVAI (listed as Homo sapiens) [ILR1]
samples with significant (>20) CTL responses against peptide [1]: 40% | # of positively stained spots (IFN-γ ELISPOT) [1]: 2 per 105 PBMC (3×) and 3 per 105 PBMC (2×) and 1 per 105 PBMC (2×) and 4 per 105 PBMC and 5 per 105 PBMC and 56 per 105 PBMC and 54 per 105 PBMC and 34 per 105 PBMC (2×) and 33 per 105 PBMC and 25 per 105 PBMC | recognition of AML cells from A*02-negative patients by peptide-specific T cells [2]: not recognized (4/4) | recognition of AML cells from A*02-positive patients by peptide-specific T cells [2]: recognized in all cases | A*02-positive AML patients in whom the peptide is a tumor-associated antigen [2]: 100% | recognition/lysis of T2 cells pulsed with the peptide (peptide-pulsed T2 cells; effectors: T cells specific for ILR1): lysed in a dose-dependent fashion | affinity of peptide-specific CTL to the peptide/MHC complex (peptide-pulsed T2 cells): high affinity | patients with significant levels of peptide-specific T cells [3]: 50% | Evaluable donors with clearly positive T-cell responses [4]: 5 | Evaluable stimulations with clearly positive T-cell responses [4]: 29 | generation of CTL lines from healthy HLA-A*0201+ donors [5]: CTL lines could be generated | generation of autologous peptide-specific CTL lines from patients [5]: could be generated eliciting efficient cytotoxic activity | # of positively stained spots (IFN-γ ELISPOT) [6]: 0 per 105 PBMC (5×) and 3 per 105 PBMC (2×) and 2 per 105 PBMC and 4 per 105 PBMC (3×) and 5 per 105 PBMC (2×) and 6 per 105 PBMC and 7 per 105 PBMC
